Experiments:
Rv2170 [1] = target: T1, Rv2170 (Mycobacterium tuberculosis, UniProt O53504)
Rv2170 [2] = target: T1, Rv2170; remark: listed apart in the source

T1 sequence (O53504 whole entry): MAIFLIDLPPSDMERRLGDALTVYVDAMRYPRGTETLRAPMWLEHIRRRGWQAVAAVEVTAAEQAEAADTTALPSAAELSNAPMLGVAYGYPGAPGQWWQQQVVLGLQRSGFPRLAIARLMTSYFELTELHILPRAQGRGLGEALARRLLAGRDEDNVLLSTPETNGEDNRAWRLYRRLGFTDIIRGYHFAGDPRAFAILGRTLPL

CC(=O)SCCNC(=O)CCNC(=O)[C@H](O)C(C)(C)COP(=O)(O)OP(=O)(O)OC[C@H]1O[C@@H](n2cnc3c(N)ncnc32)[C@H](O)[C@@H]1OP(=O)(O)O [acetyl-CoA]
DTNB assay of free CoA at 412 nm; also 14C transfer to ICDH1 by SDS-PAGE and pho (Rv2170 [1]): sigmoidal response in kinetic analysis of Rv2170 when the concentration of acetyl-CoA was increased

CCC(=O)SCCNC(=O)CCNC(=O)[C@H](O)C(C)(C)COP(=O)(O)OP(=O)(O)OC[C@H]1O[C@@H](n2cnc3c(N)ncnc32)[C@H](O)[C@@H]1OP(=O)(O)O [propionyl-CoA]
14C transfer to ICDH1, SDS-PAGE and phosphorimaging (Rv2170 [2]): Rv2170 is also capable of modifying ICDH1 with the succinyl-CoA and propionyl-CoA donors

From PMC5428333, “Novel protein acetyltransferase, Rv2170, modulates carbon and energy metabolism in Mycobacterium tuberculosis” (Scientific Reports, 2017)
